We go through eleven molecules from patent US8933079B2, “Pyridone and pyridazinone derivatives as anti-obesity agents” (Boehringer Ingelheim International GmbH, priority 2012, dated 2015).

The IC50 is the midpoint of a concentration-inhibition curve. Low values mean greater potency, high ones weaker potency.

Data set [1] deals with human hepatocytes. As to the kind of experiment: Metabolic degradation in human hepatocytes (intrinsic clearance). Type of data set: in vitro ADME. To be noted: human hepatocyte suspension, 1 μM test compound, 5% human serum, 6 h. Here is the method: Determination of Metabolic Degradation in Human Hepatocytes for Compounds of the Invention
The metabolic degradation of the test compound is determined in a hepatocyte suspension. Hepatocytes (typically cryopreserved) are incubated in an appropriate buffer system (e.g. Dulbecco's modified eagle medium plus 3.5 μg glucagon/500 mL, 2.5 mg insulin/500 mL and 3.75 mg/500 mL hydrocortison) containing 5% human serum.
Following a (typically) 30 min preincubation in an incubator (37° C., 10% CO2), 5 μl of test compound solution (80 μM; from 2 mM in DMSO stock solution diluted 1:25 with medium) are added into 395 μl hepatocyte suspension (cell density in the range 0.25-5 Mio cells/mL, typically 1 Mio cells/mL; final concentration of test compound 1 μM, final DMSO concentration 0.05%). The cells are incubated for six hours (incubator, orbital shaker) and samples (25 μl) are taken at 0, 0.5, 1, 2, 4 and 6 hours. Samples are transferred into acetonitrile and pelleted by centrifugation (5 min). The supernatant is transferred to a new 96-deepwell plate, evaporated under nitrogen and resuspended.
Decline of parent compound is analyzed by HPLC-MS/MS.
CLint is calculated as follows CL_[…]=Dose/AUC=(CO/CD)/(AUD+clast/k)×1000/60. C0: initial concentration in the incubation [μM], CD: cell density of vital cells [10e6 cells/mL], AUD: area under the data [μM×h], clast: concentration of last data point [μM], k: slope of the regression line for parent decline [h−1].

Data set [2] deals with hMCH-1R (Homo sapiens (Human), UniProt Q99705). Kind of data set: MCH-1 receptor binding test (125I-MCH binding to hMCH-1R transfected cell membranes). The conditions noted are these: competition with 100 pM 125I-MCH, membranes of CHO/Galpha16 cells stably transfected with hMCH-1R.
Chain of hMCH-1R (Q99705 whole entry): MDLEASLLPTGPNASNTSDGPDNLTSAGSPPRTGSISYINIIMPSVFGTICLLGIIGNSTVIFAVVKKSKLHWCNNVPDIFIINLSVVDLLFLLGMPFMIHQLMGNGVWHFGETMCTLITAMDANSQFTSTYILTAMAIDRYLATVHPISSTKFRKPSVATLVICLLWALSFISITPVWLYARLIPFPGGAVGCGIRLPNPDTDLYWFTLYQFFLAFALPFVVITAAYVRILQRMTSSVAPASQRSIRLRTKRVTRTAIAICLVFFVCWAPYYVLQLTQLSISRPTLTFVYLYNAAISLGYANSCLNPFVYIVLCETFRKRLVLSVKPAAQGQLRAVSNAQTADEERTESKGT

`Cc1cc(CN(C)C)ccc1C(=O)Cn1ncc(OCc2ccc(F)cn2)cc1=O` [Example 6.5] came in with a CLint in data set [1] of 1.7 μL/min/10e6 cells. For the same molecule, in data set [2], the half-maximal inhibitory concentration (IC50) was found to be 0.05 µM.

In data set [1], `Cc1cc(CN(C)C)ccc1C(=O)Cn1ccc(OCc2ccccc2)cc1=O` [Example 1.8, 4-Benzyloxy-1-[2-(4-dimethylaminomethyl-2-methyl-phenyl)-2-oxo-ethyl]-1H-pyridin-2-one] came in with a CLint of 3.9 μL/min/10e6 cells. The same molecule gave a half-inhibitory concentration (IC50) in data set [2] of 0.017 µM.

Molecule `Cc1cc(CN(C)C)ccc1C(=O)Cn1ccc(OCc2ccc(Br)cn2)cc1=O` [Example 4.1, 4-(5-Bromo-pyridin-2-ylmethoxy)-1-[2-(4-dimethylaminomethyl-2-methyl-phenyl)-2-oxo-ethyl]-1H-pyridin-2-one] gave a CLint in data set [1] of 20.7 μL/min/10e6 cells. This molecule came in with an IC50 in data set [2] of 0.017 µM.

For `Cc1cc(CN(C)C)ccc1C(=O)Cn1ccc(OCc2ccc(Cl)cn2)cc1=O` [Example 3.9, 4-(5-Chloro-pyridin-2-ylmethoxy)-1-[2-(4-dimethylaminomethyl-2-methyl-phenyl)-2-oxo-ethyl]-1H-pyridin-2-one], the CLint in data set [1] is reported as 13.8 μL/min/10e6 cells. Moreover, the IC50 in data set [2] was 0.032 µM.

For `CN(C)Cc1ccc(C(=O)Cn2ccc(OCc3ccc(Br)cn3)cc2=O)cc1` [Example 11.2 in WO2009/103478, reference compound], the CLint in data set [1] stood at 66.1 μL/min/10e6 cells.

In data set [1], `CN(C)Cc1ccc(C(=O)Cn2ccc(OCc3ccc(Cl)cn3)cc2=O)cc1` [Example 9.2 in WO2009/103478, reference compound] displayed a CLint of 68.8 μL/min/10e6 cells.

Consider `COc1ccc(COc2cnn(CC(=O)c3ccc(CN(C)C)cc3C)c(=O)c2)nc1` [Example 9.1, 2-[2-(4-Dimethylaminomethyl-2-methyl-phenyl)-2-oxo-ethyl]-5-(5-methoxy-pyridin-2-ylmethoxy)-2H-pyridazin-3-one], for which the CLint in data set [1] was 3.3 μL/min/10e6 cells. Besides, the IC50 in data set [2] came out at 0.028 µM.

Consider `CN(C)Cc1ccc(C(=O)Cn2ccc(OCc3ccccc3)cc2=O)cc1` [Example 29.8 in WO2008/22979, reference compound], for which the CLint in data set [1] is 24.3 μL/min/10e6 cells.

In data set [1], `COc1ccc(COc2cnn(CC(=O)c3ccc(CN(C)C)cc3)c(=O)c2)nc1` [Example 9.1c, 2-[2-(4-Dimethylaminomethyl-phenyl)-2-oxo-ethyl]-5-(5-methoxy-pyridin-2-ylmethoxy)-2H-pyridazin-3-one, reference compound] showed a CLint of 27 μL/min/10e6 cells.

`Cc1cc(CN(C)C)ccc1C(=O)Cn1ncc(OCc2ccccc2)cc1=O` [Example 5.2, 5-Benzyloxy-2-[2-(4-dimethylaminomethyl-2-methyl-phenyl)-2-oxo-ethyl]-2H-pyridazin-3-one] gave a CLint in data set [1] of 4.8 μL/min/10e6 cells. Further, the half-maximal inhibitory concentration (IC50) in data set [2] stood at 0.009 µM.

In the case of `Cc1cc(CN(C)C)ccc1C(=O)Cn1ncc(OCc2ccc(Br)cn2)cc1=O` [Example 8.3, 5-(5-Bromo-pyridin-2-ylmethoxy)-2-[2-(4-dimethylaminomethyl-2-methyl-phenyl)-2-oxo-ethyl]-2H-pyridazin-3-one], the CLint in data set [1] came out at 11.5 μL/min/10e6 cells. In data set [2], the IC50 came out at 0.016 µM.
